Data: patent US10316032B2, “Solid forms of a compound for modulating kinases” (Plexxikon Inc., priority 2015, dated 2019)
In brackets after ≈: the same amount, converted by molar mass. One block for each compound: values may come before it.

Tests used:
[1] = Solubility estimates at ambient temperature (solvent aliquot addition, visual); format: physicochemical; details: thermodynamic from solid
Description: Aliquots of various solvents were added to measured amounts of Compound I with agitation (typically sonication) at ambient temperature until complete dissolution was achieved, as judged by visual observation. Solubilities were calculated based on the total solvent used to give a solution; actual solubilities may be greater because of the volume of solvent portions utilized or a slow rate of dissolution. […] If dissolution occurred at the first aliquot the value was reported as “>”.

[2] = Interconversion (competitive slurry) experiments Form B / Form H; format: physicochemical; details: various solvent systems, between ambient temperature and approximately 75° C.
Description: Solutions of Compound I were prepared by adding sufficient solids to a given solvent or solvent system at ambient conditions such that undissolved solids were present. The mixture was then agitated in a closed vial at ambient or elevated temperature for an extended period of time. Solids were collected by vacuum filtration and analyzed.

[3] = molecular target: B-Raf V600E kinase (Homo sapiens, UniProt P15056, V600E); test: B-Raf V600E kinase inhibition
Chain of B-Raf V600E kinase (P15056 whole entry V600E): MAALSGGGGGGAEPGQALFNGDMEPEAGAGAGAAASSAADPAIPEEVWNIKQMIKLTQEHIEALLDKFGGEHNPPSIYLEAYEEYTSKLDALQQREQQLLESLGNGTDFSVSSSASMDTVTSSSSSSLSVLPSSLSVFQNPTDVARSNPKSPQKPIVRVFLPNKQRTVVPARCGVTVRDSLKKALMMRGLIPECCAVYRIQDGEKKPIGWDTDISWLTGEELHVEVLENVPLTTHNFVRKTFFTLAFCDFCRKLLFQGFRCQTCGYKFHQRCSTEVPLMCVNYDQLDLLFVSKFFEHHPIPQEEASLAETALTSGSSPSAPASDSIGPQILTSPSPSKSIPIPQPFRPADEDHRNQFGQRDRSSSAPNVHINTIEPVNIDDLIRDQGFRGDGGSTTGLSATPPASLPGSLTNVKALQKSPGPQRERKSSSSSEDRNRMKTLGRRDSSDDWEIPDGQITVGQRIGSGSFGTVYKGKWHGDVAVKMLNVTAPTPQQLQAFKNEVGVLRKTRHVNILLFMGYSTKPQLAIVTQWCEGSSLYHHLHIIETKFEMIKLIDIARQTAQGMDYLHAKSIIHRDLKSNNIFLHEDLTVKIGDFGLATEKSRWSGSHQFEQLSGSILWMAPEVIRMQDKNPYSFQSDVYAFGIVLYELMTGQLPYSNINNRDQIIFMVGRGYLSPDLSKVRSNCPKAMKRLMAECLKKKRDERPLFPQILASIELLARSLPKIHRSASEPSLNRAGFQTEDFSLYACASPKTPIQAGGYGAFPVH

solubility ([1]; aqueous with cosolvent or surfactant or cyclodextrin, EtOH/Water (75/25 vol/vol)): ~5000 µg/mL (≈ 9.22 mM)
solubility ([1]; organic solvent or mixture, ACN): ~5000 µg/mL (≈ 9.22 mM)
solubility ([1]; organic solvent or mixture, Acetone): ~36000 µg/mL (≈ 66.4 mM)
solubility ([1]; organic solvent or mixture, DCM): < 1000 µg/mL
solubility ([1]; organic solvent or mixture, DMF): > 97000 µg/mL
solubility ([1]; organic solvent or mixture, DMSO): > 84000 µg/mL
solubility ([1]; organic solvent or mixture, Dioxane): > 103000 µg/mL
solubility ([1]; organic solvent or mixture, EtOAc): ~5000 µg/mL (≈ 9.22 mM)
solubility ([1]; organic solvent or mixture, EtOH): ~1000 µg/mL (≈ 1.84 mM)
solubility ([1]; organic solvent or mixture, Heptane): < 1000 µg/mL
solubility ([1]; organic solvent or mixture, IPA): < 1000 µg/mL
solubility ([1]; organic solvent or mixture, MTBE): < 2000 µg/mL
solubility ([1]; organic solvent or mixture, MeOH): ~4000 µg/mL (≈ 7.37 mM)
solubility ([1]; organic solvent or mixture, THF): > 102000 µg/mL
solubility ([1]; organic solvent or mixture, t-BuOH): < 2000 µg/mL
solubility ([1]; Water): < 1000 µg/mL
relative stability of solid forms (competitive slurry) ([2]; listed as Form B): less stable than Form H
SMILES: O=C(c1c(F)ccc(NS(=O)(=O)N2CC[C@@H](F)C2)c1F)c1c[nH]c2ncc(-c3cnc(C4CC4)nc3)cc12 [Compound I Form B, (3R)—N-(3-(5-(2-cyclopropylpyrimidin-5-yl)-1H-pyrrolo[2,3-b]pyridine-3-carbonyl)-2,4-difluorophenyl)-3-fluoropyrrolidine-1-sulfonamide]

relative stability of solid forms (competitive slurry) ([2]; listed as Form H): more stable than Form B
SMILES: O=C(c1c(F)ccc(NS(=O)(=O)N2CC[C@@H](F)C2)c1F)c1c[nH]c2ncc(-c3cnc(C4CC4)nc3)cc12 [Compound I Form H, (3R)—N-(3-(5-(2-cyclopropylpyrimidin-5-yl)-1H-pyrrolo[2,3-b]pyridine-3-carbonyl)-2,4-difluorophenyl)-3-fluoropyrrolidine-1-sulfonamide]

IC50 [3]: < 100 nM
SMILES: O=C(c1c(F)ccc(NS(=O)(=O)N2CC[C@@H](F)C2)c1F)c1c[nH]c2ncc(-c3cnc(C4CC4)nc3)cc12 [Compound I, (3R)—N-(3-(5-(2-cyclopropylpyrimidin-5-yl)-1H-pyrrolo[2,3-b]pyridine-3-carbonyl)-2,4-difluorophenyl)-3-fluoropyrrolidine-1-sulfonamide]
